Measured values: US20150105252A1, “SUBSTITUTED PYRAZOLES AS HERBICIDES” (E I DU PONT DE NEMOURS AND COMPANY, priority 2013, published 2015)

What was measured:
Assay in all cases: Test C postemergence
blackgrass = assay type: in vivo, Alopecurus myosuroides
Summary of the method: (§1)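 Herbicidal effect is expressed as percent visual control (0–100) judged against untreated plants 13 to 15 days after treatment in the greenhouse. Preemergence pots contained seeds in a soil–sand blend; postemergence plants, 2–18 cm tall, grew in peat-based planting medium.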

ryegrass, Italian = assay type: in vivo, Lolium multiflorum
Summary of the method: as §1

wheat = assay type: in vivo, Triticum aestivum
Summary of the method: as §1

galium = assay type: in vivo, Galium aparine
Summary of the method: as §1

corn = assay type: in vivo, Zea mays
Summary of the method: as §1

crabgrass, large = assay type: in vivo, Digitaria sanguinalis
Summary of the method: as §1

foxtail, giant = assay type: in vivo, Setaria faberii
Summary of the method: as §1

johnsongrass = assay type: in vivo, Sorghum halepense
Summary of the method: as §1

lambsquarters = assay type: in vivo, Chenopodium album
Summary of the method: as §1

pigweed = assay type: in vivo, Amaranthus retroflexus
Summary of the method: as §1

ragweed = assay type: in vivo, Ambrosia elation
Summary of the method: as §1

soybean = assay type: in vivo, Glycine max
Summary of the method: as §1

barnyardgrass = assay type: in vivo, Echinochloa crus-galli
Summary of the method: as §1

oat, wild = assay type: in vivo, Avena fatua
Summary of the method: as §1

kochia = assay type: in vivo, Kochia scoparia
Summary of the method: as §1

velvetleaf = assay type: in vivo, Abutilon theophrasti
Summary of the method: as §1

chickweed = assay type: in vivo, Stellaria media
Summary of the method: as §1

[1] = Postemergence, 31 g ai/ha, visually evaluated after 13 to 15 days
[2] = postemergence, 62 g ai/ha, scale 0 to 100
[3] = postemergence, 250 g ai/ha, scale 0 to 100 (0 no effect, 100 complete control)
[4] = postemergence, 125 g ai/ha, scale 0 to 100, 0 no effect, 100 complete control

CCc1cc(C(=O)NC(C)C)nn1Cc1ccnc(C(F)(F)F)c1 [Compound 103]
Plant response rating (scale of 0 to 100 where 0 is no effect and 100 is complete control), Blackgrass (blackgrass; [1]): 10
Blackgrass plant response rating (blackgrass; [2]): 15
Plant response rating, Blackgrass (blackgrass; [3]): 60
Plant response rating, Blackgrass (blackgrass; [4]): 40
Plant response rating (scale of 0 to 100 where 0 is no effect and 100 is complete control), Ryegrass, Italian (ryegrass, Italian; [1]): 5
Ryegrass, Italian plant response rating (ryegrass, Italian; [2]): 5
Plant response rating, Ryegrass, Italian (ryegrass, Italian; [3]): 45
Plant response rating, Ryegrass, Italian (ryegrass, Italian; [4]): 5
Plant response rating (scale of 0 to 100 where 0 is no effect and 100 is complete control), Wheat (wheat; [1]): 0
Wheat plant response rating (wheat; [2]): 5
Plant response rating, Wheat (wheat; [3]): 15
Plant response rating, Wheat (wheat; [4]): 5
Plant response rating (scale of 0 to 100 where 0 is no effect and 100 is complete control), Galium (galium; [1]): 50
Galium plant response rating (galium; [2]): 70
Plant response rating, Galium (galium; [3]): 80
Plant response rating, Galium (galium; [4]): 75
Plant response rating (scale of 0 to 100 where 0 is no effect and 100 is complete control), Corn (corn; [1]): 10
Corn plant response rating (corn; [2]): 15
Plant response rating, Corn (corn; [3]): 95
Plant response rating, Corn (corn; [4]): 35
Plant response rating (scale of 0 to 100 where 0 is no effect and 100 is complete control), Crabgrass, Large (crabgrass, large; [1]): 10
Crabgrass, Large plant response rating (crabgrass, large; [2]): 15
Plant response rating, Crabgrass, Large (crabgrass, large; [3]): 85
Plant response rating, Crabgrass, Large (crabgrass, large; [4]): 35
Plant response rating (scale of 0 to 100 where 0 is no effect and 100 is complete control), Foxtail, Giant (foxtail, giant; [1]): 40
Foxtail, Giant plant response rating (foxtail, giant; [2]): 40
Plant response rating, Foxtail, Giant (foxtail, giant; [3]): 90
Plant response rating, Foxtail, Giant (foxtail, giant; [4]): 60
Plant response rating (scale of 0 to 100 where 0 is no effect and 100 is complete control), Johnsongrass (johnsongrass; [1]): 5
Johnsongrass plant response rating (johnsongrass; [2]): 10
Plant response rating, Johnsongrass (johnsongrass; [3]): 95
Plant response rating, Johnsongrass (johnsongrass; [4]): 20
Plant response rating (scale of 0 to 100 where 0 is no effect and 100 is complete control), Lambsquarters (lambsquarters; [1]): 65
Lambsquarters plant response rating (lambsquarters; [2]): 70
Plant response rating, Lambsquarters (lambsquarters; [3]): 90
Plant response rating, Lambsquarters (lambsquarters; [4]): 75
Plant response rating (scale of 0 to 100 where 0 is no effect and 100 is complete control), Pigweed (pigweed; [1]): 50
Pigweed plant response rating (pigweed; [2]): 50
Plant response rating, Pigweed (pigweed; [3]): 80
Plant response rating, Pigweed (pigweed; [4]): 65
Plant response rating (scale of 0 to 100 where 0 is no effect and 100 is complete control), Ragweed (ragweed; [1]): 35
Ragweed plant response rating (ragweed; [2]): 70
Plant response rating, Ragweed (ragweed; [3]): 90
Plant response rating, Ragweed (ragweed; [4]): 80
Plant response rating (scale of 0 to 100 where 0 is no effect and 100 is complete control), Soybean (soybean; [1]): 45
Soybean plant response rating (soybean; [2]): 70
Plant response rating, Soybean (soybean; [3]): 98
Plant response rating, Soybean (soybean; [4]): 95
Plant response rating (scale of 0 to 100 where 0 is no effect and 100 is complete control), Barnyardgrass (barnyardgrass; [1]): 10
Barnyardgrass plant response rating (barnyardgrass; [2]): 15
Plant response rating, Barnyardgrass (barnyardgrass; [3]): 95
Plant response rating, Barnyardgrass (barnyardgrass; [4]): 15
Plant response rating (scale of 0 to 100 where 0 is no effect and 100 is complete control), Oat, Wild (oat, wild; [1]): 5
Oat, Wild plant response rating (oat, wild; [2]): 5
Plant response rating, Oat, Wild (oat, wild; [3]): 50
Plant response rating, Oat, Wild (oat, wild; [4]): 50
Plant response rating (scale of 0 to 100 where 0 is no effect and 100 is complete control), Kochia (kochia; [1]): 85
Kochia plant response rating (kochia; [2]): 85
Plant response rating, Kochia (kochia; [3]): 90
Plant response rating, Kochia (kochia; [4]): 85
Plant response rating (scale of 0 to 100 where 0 is no effect and 100 is complete control), Velvetleaf (velvetleaf; [1]): 25
Velvetleaf plant response rating (velvetleaf; [2]): 40
Plant response rating, Velvetleaf (velvetleaf; [3]): 55
Plant response rating, Velvetleaf (velvetleaf; [4]): 45
Plant response rating (scale of 0 to 100 where 0 is no effect and 100 is complete control), Chickweed (chickweed; [1]): 50
Chickweed plant response rating (chickweed; [2]): 60
Plant response rating, Chickweed (chickweed; [3]): 85
Plant response rating, Chickweed (chickweed; [4]): 75
